# Laboratory results reported in US8017828B2, “Utilization of rare sugars in plant or microorganism” (Shikoku Research Institute Incorporated, priority 2004, dated 2011).
# What was measured:
# Phalaenopsis orchid = assay: Growth of Phalaenopsis orchid flask seedlings in tissue culture; format: in vivo; conditions: 0.005% in MS medium; for Underground part weight: non 2.9; for Aerial part weight: non 4.7; for Number of roots: non 12.5
# Procedure: (§1) Flask seedlings of Phalaenopsis orchid and Cymbidium obtained by tissue culture were used in an experiment.
# As for Phalaenopsis orchid, MS medium supplemented with D-psicose, D-glucose or D-fructose at a concentration of 0.005% (w/v) was used, and the flask seedlings were aseptically transplanted on Sep. 6, 2004. As for the number of seedlings, 4 seedlings were used for 1 test plot, and glass bottles with a capacity of 500 ml and having a hole with a diameter of about 1 cm for preventing dew condensation made in the upper region was used as culture containers. The cultivation was carried out in a culture chamber at 25° C. and 5,000 Lux (12-hour day length) Then, on Jan. 24, 2005, a survey was carried out with regard to the growth conditions of aerial part and underground part and the number of roots. The results are shown in Table 8 (effect of addition of D-psicose on the growth of seedlings of Phalaenopsis orchid).
# [1] = tested on: rice plant (variety: “Hinohikari”); assay: Foliar spraying of sugar on pot-grown rice; format: in vivo
# Procedure: After seeds of a rice plant (variety: “Hinohikari”) were put in a nylon net and subjected to sterilization and a germination induction treatment in a growth chamber at 30° C. for 2 days while they were soaked in 0.1% (w/v) Benlate (Hokko Chemical Industry Co., Ltd.) in accordance with a common method, they were sown in a nursery tray filled with “Kumiai Ryujou Baido SD” (Kureha Chemical Industry Co., Ltd.) and raised in a phytotron (day temperature: 25° C. and night temperature: 18° C.) for about 2 weeks. Then, Wagner pots with a size of 1/5,000a were filled with “Kumiai Ryujou Baido SD” (Kureha Chemical Industry Co., Ltd.) and the raised rice seedlings were transplanted for permanent planting to the pots and the cultivation was started on Jul. 2, 2003 in the open air under the condition that the soil was covered with water in the pots. From Jul. 16, 2003, when the seedlings were confirmed to take root, water, a 0.02% (w/v) sugar solution, a 0.1% (w/v) sugar solution or a 0.5% (w/v) sugar solution was sprayed onto the whole plant on a three times weekly basis. As for the types of sugars, D-glucose, D-fructose and D-psicose were used and three pots were cultivated for each test plot. The cultivation was continued in such a manner that the water in pots was not dried up and after 5 g of Magamp K medium (HYPONeX JAPAN CORP., Ltd.) per pot was added as additional fertilization on Aug. 29, 2003, and the harvest and survey were carried out on Sep. 22, 2003. The survey items were plant length, number of tillers, leaf weight, husk weight, underground part weight and the like.
# Bletilla striata = assay: Growth and bulb formation of Bletilla striata seedlings in tissue culture; format: in vivo
# Procedure: Seedling plants of Bletilla striata obtained by sterile sowing were used in an experiment.
# As for the Bletilla striata, by using ½ strength MS medium supplemented with D-psicose, D-allose, D-glucose or D-frucose at a concentration of from 0.005% to 0.05% (w/v), the seedling plants were aseptically transplanted on Feb. 27, 2003, and then, cultivation was carried out under the same conditions as those of the strawberry in Example 3. Then, on Jun. 30, 2003, a survey was carried out with regard to the growth conditions of aerial part and underground part, the number of buds, the ratio of bulb formation, the bulb size and the like.
# [2] = tested on: Pythium ultimum IFO 32426 strain; assay: Oospore formation of Pythium ultimum in sugar solution; format: cell-based; conditions: 0.05% (w/v) sugar solution, 23° C., 4 days
# Procedure: With regard to Pythium ultimum that causes damping-off of spinach and the like, an effect of a rare sugar on oospore formation was examined.
# First, as the Pythium ultimum, IFO 32426 strain was used, and static culture thereof was carried out with 200 ml of V8 medium at 23° C. for 1 week. The resulting mycelial mat was well washed with sterile water and divided into 16 equal parts with forceps. This mycerial body was disentangled uniformly to form a small piece and immersed in 20 ml of a sugar solution at a concentration of 0.05% (w/v) and let stand at 23° C. for 4 days. […] Further, the same experiment was carried out using Pythium zingiberum IFO 30817 strain.
# Cymbidium = assay: Growth of Cymbidium flask seedlings in tissue culture; format: in vivo; conditions: 0.005% in MS medium; for Number of lateral buds: non 0; for Aerial part weight: non 2.1; for Underground part weight: non 3.8; for Number of roots: non 10.8
# Excerpt: as §1
# As for Cymbidium, in the same manner as the above Phalaenopsis orchid, MS medium supplemented with D-psicose, D-glucose, D-fructose or D-allose was used, and the flask seedlings were aseptically transplanted on Oct. 4, 2004. At this time, 4 or 5 leaves and 2 roots were left and the rest of them were cut off using a knife. As for the number of seedlings, 4 seedlings were used for 1 test plot, and glass bottles with a capacity of 900 ml and having a hole with a diameter of about 1 cm for preventing dew condensation made in the upper region was used as culture containers. The cultivation was carried out in a culture chamber at 25° C. and 5,000 Lux (12-hour day length) Then, on Feb. 1, 2005, a survey was carried out with regard to the growth conditions of aerial part and underground part, the number of roots and the number of lateral buds. The results are shown in Table 9 (effect of addition of rare sugar on the growth of seedlings of Cymbidium).
smiles,measurement,setting,value
"O=C(CO)[C@@H](O)[C@H](O)[C@H](O)CO [D-fructose, reference compound]",Underground part weight,Phalaenopsis orchid,4.0 g
same,Aerial part weight,Phalaenopsis orchid,5.7 g
same,Number of roots,Phalaenopsis orchid,14.8 roots
same,Dry husk weight,[1]; 0.02% sugar solution sprayed,16.8 g
same,Dry leaf weight,[1]; 0.02% sugar solution sprayed,43.3 g
same,Number of tillers,[1]; 0.02% sugar solution sprayed,29.3
same,Plant length,[1]; 0.02% sugar solution sprayed,85.7 cm
same,Dry husk weight,[1]; 0.10% sugar solution sprayed,16.1 g
same,Dry leaf weight,[1]; 0.10% sugar solution sprayed,41.0 g
same,Number of tillers,[1]; 0.10% sugar solution sprayed,29.3
same,Plant length,[1]; 0.10% sugar solution sprayed,84.3 cm
same,Dry husk weight,[1]; 0.50% sugar solution sprayed,17.2 g
same,Dry leaf weight,[1]; 0.50% sugar solution sprayed,36.4 g
same,Number of tillers,[1]; 0.50% sugar solution sprayed,27.0
same,Plant length,[1]; 0.50% sugar solution sprayed,85.7 cm
same,Aerial part weight,Bletilla striata; sugar 0.005% in medium,0.16 g
same,Bulb size,Bletilla striata; sugar 0.005% in medium,5.2 mm
same,Maximum plant length,Bletilla striata; sugar 0.005% in medium,6.5 cm
same,Maximum root length,Bletilla striata; sugar 0.005% in medium,4.6 cm
same,Number of buds,Bletilla striata; sugar 0.005% in medium,3.7
same,Number of leaves,Bletilla striata; sugar 0.005% in medium,3.5
same,Ratio of bulb formation,Bletilla striata; sugar 0.005% in medium,44%
same,Underground part weight,Bletilla striata; sugar 0.005% in medium,0.15 g
same,Aerial part weight,Bletilla striata; sugar 0.02% in medium,0.19 g
same,Bulb size,Bletilla striata; sugar 0.02% in medium,4.5 mm
same,Maximum plant length,Bletilla striata; sugar 0.02% in medium,6.6 cm
same,Maximum root length,Bletilla striata; sugar 0.02% in medium,5.1 cm
same,Number of buds,Bletilla striata; sugar 0.02% in medium,3.3
same,Number of leaves,Bletilla striata; sugar 0.02% in medium,4.6
same,Ratio of bulb formation,Bletilla striata; sugar 0.02% in medium,67%
same,Underground part weight,Bletilla striata; sugar 0.02% in medium,0.14 g
same,Aerial part weight,Bletilla striata; sugar 0.05% in medium,0.19 g
same,Bulb size,Bletilla striata; sugar 0.05% in medium,4.7 mm
same,Maximum plant length,Bletilla striata; sugar 0.05% in medium,7.3 cm
same,Maximum root length,Bletilla striata; sugar 0.05% in medium,4.1 cm
same,Number of buds,Bletilla striata; sugar 0.05% in medium,3.3
same,Number of leaves,Bletilla striata; sugar 0.05% in medium,4.0
same,Ratio of bulb formation,Bletilla striata; sugar 0.05% in medium,69%
same,Underground part weight,Bletilla striata; sugar 0.05% in medium,0.10 g
same,oospore formation,[2],no effect
same,Number of lateral buds,Cymbidium,0 buds
same,Aerial part weight,Cymbidium,2.0 g
same,Underground part weight,Cymbidium,3.8 g
same,Number of roots,Cymbidium,10.0 roots
"O=C[C@H](O)[C@@H](O)[C@H](O)[C@H](O)CO [D-glucose, reference compound]",Underground part weight,Phalaenopsis orchid,3.7 g
same,Aerial part weight,Phalaenopsis orchid,5.1 g
same,Number of roots,Phalaenopsis orchid,12.3 roots
same,Dry husk weight,[1]; 0.02% sugar solution sprayed,17.2 g
same,Dry leaf weight,[1]; 0.02% sugar solution sprayed,34.0 g
same,Number of tillers,[1]; 0.02% sugar solution sprayed,29.3
same,Plant length,[1]; 0.02% sugar solution sprayed,74.0 cm
same,Dry husk weight,[1]; 0.10% sugar solution sprayed,17.6 g
same,Dry leaf weight,[1]; 0.10% sugar solution sprayed,35.5 g
same,Number of tillers,[1]; 0.10% sugar solution sprayed,30.0
same,Plant length,[1]; 0.10% sugar solution sprayed,75.5 cm
same,Dry husk weight,[1]; 0.50% sugar solution sprayed,17.9 g
same,Dry leaf weight,[1]; 0.50% sugar solution sprayed,37.3 g
same,Number of tillers,[1]; 0.50% sugar solution sprayed,31.3
same,Plant length,[1]; 0.50% sugar solution sprayed,74.8 cm
same,Aerial part weight,Bletilla striata; sugar 0.005% in medium,0.15 g
same,Bulb size,Bletilla striata; sugar 0.005% in medium,5.1 mm
same,Maximum plant length,Bletilla striata; sugar 0.005% in medium,7.3 cm
same,Maximum root length,Bletilla striata; sugar 0.005% in medium,4.9 cm
same,Number of buds,Bletilla striata; sugar 0.005% in medium,3.7
same,Number of leaves,Bletilla striata; sugar 0.005% in medium,4.1
same,Ratio of bulb formation,Bletilla striata; sugar 0.005% in medium,37%
same,Underground part weight,Bletilla striata; sugar 0.005% in medium,0.13 g
same,Aerial part weight,Bletilla striata; sugar 0.02% in medium,0.20 g
same,Bulb size,Bletilla striata; sugar 0.02% in medium,5.7 mm
same,Maximum plant length,Bletilla striata; sugar 0.02% in medium,7.2 cm
same,Maximum root length,Bletilla striata; sugar 0.02% in medium,5.1 cm
same,Number of buds,Bletilla striata; sugar 0.02% in medium,3.4
same,Number of leaves,Bletilla striata; sugar 0.02% in medium,3.9
same,Ratio of bulb formation,Bletilla striata; sugar 0.02% in medium,59%
same,Underground part weight,Bletilla striata; sugar 0.02% in medium,0.18 g
same,Aerial part weight,Bletilla striata; sugar 0.05% in medium,0.18 g
same,Bulb size,Bletilla striata; sugar 0.05% in medium,5.2 mm
same,Maximum plant length,Bletilla striata; sugar 0.05% in medium,6.5 cm
same,Maximum root length,Bletilla striata; sugar 0.05% in medium,6.1 cm
same,Number of buds,Bletilla striata; sugar 0.05% in medium,3.4
same,Number of leaves,Bletilla striata; sugar 0.05% in medium,4.0
same,Ratio of bulb formation,Bletilla striata; sugar 0.05% in medium,45%
same,Underground part weight,Bletilla striata; sugar 0.05% in medium,0.14 g
same,oospore formation,[2],no effect
same,Number of lateral buds,Cymbidium,0 buds
same,Aerial part weight,Cymbidium,1.9 g
same,Underground part weight,Cymbidium,2.9 g
same,Number of roots,Cymbidium,9.5 roots
O=C[C@H](O)[C@H](O)[C@H](O)[C@H](O)CO [D-allose],growth when the concentration added to the medium was increased,Bletilla striata; increased (high) concentration in medium,the growth thereof was delayed
same,Aerial part weight,Bletilla striata; sugar 0.005% in medium,0.19 g
same,Bulb size,Bletilla striata; sugar 0.005% in medium,4.5 mm
same,Maximum plant length,Bletilla striata; sugar 0.005% in medium,7.6 cm
same,Maximum root length,Bletilla striata; sugar 0.005% in medium,4.2 cm
same,Number of buds,Bletilla striata; sugar 0.005% in medium,3.4
same,Number of leaves,Bletilla striata; sugar 0.005% in medium,4.2
same,Ratio of bulb formation,Bletilla striata; sugar 0.005% in medium,84%
same,Underground part weight,Bletilla striata; sugar 0.005% in medium,0.10 g
same,Aerial part weight,Bletilla striata; sugar 0.02% in medium,0.19 g
same,Bulb size,Bletilla striata; sugar 0.02% in medium,4.2 mm
same,Maximum plant length,Bletilla striata; sugar 0.02% in medium,7.5 cm
same,Maximum root length,Bletilla striata; sugar 0.02% in medium,4.1 cm
same,Number of buds,Bletilla striata; sugar 0.02% in medium,3.6
same,Number of leaves,Bletilla striata; sugar 0.02% in medium,3.9
same,Ratio of bulb formation,Bletilla striata; sugar 0.02% in medium,85%
same,Underground part weight,Bletilla striata; sugar 0.02% in medium,0.12 g
same,Aerial part weight,Bletilla striata; sugar 0.05% in medium,0.25 g
same,Bulb size,Bletilla striata; sugar 0.05% in medium,4.9 mm
same,Maximum plant length,Bletilla striata; sugar 0.05% in medium,7.7 cm
same,Maximum root length,Bletilla striata; sugar 0.05% in medium,4.2 cm
same,Number of buds,Bletilla striata; sugar 0.05% in medium,2.7
same,Number of leaves,Bletilla striata; sugar 0.05% in medium,4.3
same,Ratio of bulb formation,Bletilla striata; sugar 0.05% in medium,85%
same,Underground part weight,Bletilla striata; sugar 0.05% in medium,0.12 g
same,oospore formation,[2],not observed at all
same,Number of lateral buds,Cymbidium,3.8 buds
same,Aerial part weight,Cymbidium,2.7 g
same,Underground part weight,Cymbidium,4.0 g
same,Number of roots,Cymbidium,12.8 roots
